The source of these data is patent US20260337153A1, “IONIZABLE AMINE LIPIDS” (Intellia Therapeutics, Inc., priority 2023, published 2026).

Holding throughout (type): physicochemical
Data set [1] is described as follows: pKa of unformulated amine lipid by TNS fluorescence. The note with it: sodium phosphate buffer; Table 2; unformulated amine lipid, TNS; read-out: Lipid pKa. In outline:
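Unformulated amine lipid was diluted from ethanol stock to approx. 100 μM in 0.1 M sodium phosphate buffers spanning pH 4.5–9.0 with TNS. Fluorescence read at ex 321/em 448 nm; normalized data fitted sigmoidally to give pKa.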

A short description of data set [2]: LNP encapsulation efficiency of RNA (Ribogreen fluorescence assay). To be noted: Table 3, Experiments 1-13; LNP 50% ionizable lipid, 38% cholesterol, 9% DSPC, 3% PEG2K-DMG; sgRNA:mRNA 1:2. As for the experimental part: (§1) LNP compositions are analyzed for average particle size, polydispersity index (pdi), total RNA content, encapsulation efficiency of RNA, and zeta potential. LNP compositions may be further characterized by lipid analysis, AF4-MALS, NTA, and/or cryo-EM.
Encapsulation efficiency is calculated as (Total RNA−Free RNA)/Total RNA. A fluorescence-based assay (Ribogreen®, ThermoFisher Scientific) is used to determine total RNA concentration and free RNA. LNP samples are diluted appropriately with 1×TE buffer containing 0.2% Triton-X 100 to determine total RNA or 1×TE buffer to determine free RNA. Standard curves are prepared by utilizing the starting RNA solution used to make the compositions and diluted in 1×TE buffer+/−0.2% Triton-X 100. Diluted RiboGreen® dye (according to the manufacturer's instructions) is then added to each of the standards and samples and allowed to incubate for approximately 10 minutes at room temperature, in the absence of light. A SpectraMax M5 Microplate Reader (Molecular Devices) is used to read the samples with excitation, auto cutoff and emission wavelengths set to 488 nm, 515 nm, and 525 nm respectively. Total RNA and free RNA are determined from the appropriate standard curves. Alternatively, the total RNA concentration can be determined by a reverse-phase ion-pairing (RP-IP) HPLC method. Triton X-100 is used to disrupt the LNPs, releasing the RNA. The RNA is then separated from the lipid components chromatographically by RP-IP HPLC and quantified against a standard curve using UV absorbance at 260 nm.
(§2) In vivo editing efficiency for materials delivered with formulations including various amine lipid (or ionizable lipid) compounds in Experiments 1 through 14 as described in Tables 3 and 4 was assessed. Editing was measured using G000534 (SEQ ID NO: 5) which targets the rat TTR gene. Lipids described above were assessed for efficacy through in vivo editing experiments. LNPs were formulated at a 1:2 w/w ratio of sgRNA (SEQ ID NO: 5) and Cas9 mRNA (SEQ ID NO: 3). In Experiments 1 through 13, lipid components of the LNP are formulated in a molar ratio of 50% ionizable lipid, 38% cholesterol, 9% DSPC, and 3% PEG2K-DMG. In Experiment 14, lipid components of the LNP are formulated in a molar ratio of 50% ionizable lipid, 38% cholesterol, 9% DSPC, and 3% C13 Ether. The final LNPs used in different in vivo editing experiments were characterized to determine the encapsulation efficiency (% E), polydispersity index (PDI), and average particle size (Z-avg and number mean) according to the analytical methods provided above. The pKa values of each of the following ionizable lipids were also measured to be in the range of about 5.8 to about 7.6.
(§3) In vivo editing efficiency for materials delivered with formulations including various combinations of amine lipid (or ionizable lipid) and PEG lipid compounds was assessed as described in Tables 5 and 6. Editing was measured using G000534 (SEQ ID NO: 5) which targets the rat TTR gene. Lipids described above were assessed for efficacy through in vivo editing experiments. LNPs were formulated at a 1:2 w/w ratio of sgRNA (SEQ ID NO: 5) and Cas9 mRNA (SEQ ID NO:3). Lipid components of the LNP are formulated in a molar ratio of 50% ionizable lipid, 38% cholesterol, 9% DSPC, and 3% of various PEG lipids (e.g., PEG2K-DMG, C13 Ether, C14 Ether). The final LNPs used in different in vivo editing experiments were characterized to determine the encapsulation efficiency (% E), polydispersity index (PDI), and average particle size (Z-avg and number mean) according to the analytical methods provided above. The pKa values of each of the following ionizable lipids were also measured to be in the range of about 5.8 to about 7.6.
In vivo editing efficiency for materials delivered with formulations including various amine lipid (or ionizable lipid) compounds as described in Tables 7 and 8 was assessed. […]

Data set [3] in a line: LNP average particle size and polydispersity by dynamic light scattering. The note with it: Table 3, Experiments 1-13; LNP 50% ionizable lipid, 38% cholesterol, 9% DSPC, 3% PEG2K-DMG; sgRNA:mRNA 1:2. As for the experimental part: Dynamic Light Scattering (“DLS”) is used to characterize the polydispersity index (“pdi” or “PDI”) and size of the LNPs of the present disclosure. DLS measures the scattering of light that results from subjecting a sample to a light source. PDI, as determined from DLS measurements, represents the distribution of particle size (around the mean particle size) in a population, with a perfectly uniform population having a PDI of zero.
as §1
Average particle size and polydispersity are measured by dynamic light scattering (DLS) using a Malvern Zetasizer DLS instrument. LNP samples were diluted with PBS buffer prior to being measured by DLS. Z-average diameter (“Z-avg”) which is an intensity-based measurement of average particle size was reported along with number average diameter (“number mean”) and PDI. A Malvern Zetasizer instrument is also used to measure the zeta potential of the LNP. Samples are diluted 1:17 (50 μL into 800 μL) in 0.1×PBS, pH 7.4 prior to measurement.
as §2, §3
In vivo editing efficiency for materials delivered with formulations including various amine lipid (or ionizable lipid) compounds as described in Tables 7 and 8 was assessed. Editing was measured using G000534 (SEQ ID NO: 5) which targets the rat TTR gene. Lipids described above were assessed for efficacy through in vivo editing experiments. LNPs were formulated at a 1:2 w/w ratio of sgRNA (SEQ ID NO: 5) and Cas9 mRNA (SEQ ID NO: 3). Lipid components of the LNP were formulated in a molar ratio of 50% ionizable lipid, 38% cholesterol, 9% DSPC, and 3% C13 Ether. […]

What is called pKa is the negative logarithm of the acid dissociation constant.

Structures are written as SMILES.

For `CCCCC/C=C\C/C=C\CCCCCCCC(=O)OCC(CCCCCCCCC(=O)OC(CCCCCCCC)CCCCCCCC)COC(=O)OCCCN(C)CC` (stereo not shown) [Compound 11, 2-((((3-(ethyl(methyl)amino)propoxy)carbonyl)oxy)methyl)-11-(heptadecan-9-yloxy)-11-oxoundecyl (9Z,12Z)-octadeca-9,12-dienoate], the pKa in data set [1] was determined as 6.13. For the same compound, in data set [2], the “% E (encapsulation efficiency)” value was found to be 99%. Moreover, in data set [3], the Number mean is 70 nm, the PDI worked out at 0.02 and the Z-avg turned out to be 78 nm.
In the case of `CCCCC/C=C\C/C=C\CCCCCCCC(=O)OCC(CCCCC(=O)OC(CCCC)CCCC)COC(=O)NCCN(CC)CC` (stereo not shown) [Compound 12, 2-((((2-(diethylamino)ethyl)carbamoyl)oxy)methyl)-7-(nonan-5-yloxy)-7-oxoheptyl (9Z,12Z)-octadeca-9,12-dienoate], the pKa in data set [1] worked out at 6.82. Besides, in data set [2], the “% E (encapsulation efficiency)” value came to 96%. Further, in data set [3], the Number mean was 101 nm, the PDI stood at 0.03 and the Z-avg was 108 nm.
The matching figures for `CCCCC/C=C\C/C=C\CCCCCCCC(=O)OCC(CCCCC(=O)OC(CCCC)CCCC)COC(=O)OCCCN(C)CC` (stereo not shown) [Compound 13, 2-((((3-(ethyl(methyl)amino)propoxy)carbonyl)oxy)methyl)-7-(nonan-5-yloxy)-7-oxoheptyl (9Z,12Z)-octadeca-9,12-dienoate]: 6.64, 98%, 87 nm, 0.04 and 99 nm.
In the same order, the values of `CCCCC/C=C\C/C=C\CCCCCCCC(=O)OCC(CCCCC(=O)OC(CCCC)CCCC)COC(=O)OCCCN(CC)CC` (stereo not shown) [Compound 14, 2-((((3-(diethylamino)propoxy)carbonyl)oxy)methyl)-7-(nonan-5-yloxy)-7-oxoheptyl (9Z,12Z)-octadeca-9,12-dienoate] are 6.27, 96%, 107 nm, 0.01 and 114 nm.
For `CCCCC/C=C\C/C=C\CCCCCCCC(=O)OCC(CCCCC(=O)OC(CCCCCCCC)CCCCCCCC)COC(=O)OCCCN(CC)CC` (stereo not shown) [Compound 15, 2-((((3-(diethylamino)propoxy)carbonyl)oxy)methyl)-7-(heptadecan-9-yloxy)-7-oxoheptyl (9Z,12Z)-octadeca-9,12-dienoate], the pKa in data set [1] worked out at 6.11. Further, in data set [2], the “% E (encapsulation efficiency)” value was found to be 98%. In data set [3], the Number mean stood at 58 nm, the PDI turned out to be 0.06 and the Z-avg was determined as 66 nm.
For `CCCCC/C=C\C/C=C\CCCCCCCC(=O)OCC(CCCCCCC(=O)OC(CCCCCCCC)CCCCCCCC)COC(=O)OCCCN(CC)CC` (stereo not shown) [Compound 16, 2-((((3-(diethylamino)propoxy)carbonyl)oxy)methyl)-9-(heptadecan-9-yloxy)-9-oxononyl (9Z,12Z)-octadeca-9,12-dienoate], the pKa in data set [1] was determined as 5.98. Besides, the “% E (encapsulation efficiency)” value in data set [2] is recorded as 99%. Moreover, in data set [3], the Number mean is on record as 62 nm, the PDI is given as 0.03 and the Z-avg is reported as 68 nm.
As to `CCCCC/C=C\C/C=C\CCCCCCCC(=O)OCC(CCCCC(=O)OC(CCCCCC)CCCCCC)COC(=O)OCCCN(CC)CC` (stereo not shown) [Compound 17, 2-((((3-(diethylamino)propoxy)carbonyl)oxy)methyl)-7-oxo-7-(tridecan-7-yloxy)heptyl (9Z,12Z)-octadeca-9,12-dienoate], the pKa in data set [1] worked out at 6.13. In addition, in data set [2], the “% E (encapsulation efficiency)” value is given as 99%. In data set [3], the Number mean stood at 67 nm, the PDI is 0.03 and the Z-avg is reported as 74 nm.
The matching figures for `CCCCC/C=C\C/C=C\CCCCCCCC(=O)OCC(CCCCCCC(=O)OC(CCCCCC)CCCCCC)COC(=O)OCCCN(CC)CC` (stereo not shown) [Compound 18, 2-((((3-(diethylamino)propoxy)carbonyl)oxy)methyl)-9-oxo-9-(tridecan-7-yloxy)nonyl (9Z,12Z)-octadeca-9,12-dienoate]: 6.08, 99%, 69 nm, 0.01 and 75 nm.
As for `CCCCC/C=C\C/C=C\CCCCCCCC(=O)OCC(CCCCCCCCC(=O)OC(CCCCCC)CCCCCC)COC(=O)OCCCN(CC)CC` (stereo not shown) [Compound 19, 2-((((3-(diethylamino)propoxy)carbonyl)oxy)methyl)-11-oxo-11-(tridecan-7-yloxy)undecyl (9Z,12Z)-octadeca-9,12-dienoate], the pKa in data set [1] came out at 6.09. The “% E (encapsulation efficiency)” value in data set [2] is 99%. For the same compound, in data set [3], the Number mean turned out to be 66 nm, the PDI was 0.02 and the Z-avg was 71 nm.
For `CCCCC/C=C\C/C=C\CCCCCCCC(=O)OCC(CCCCCCC(=O)OC(CCCC)CCCC)COC(=O)OCCCN(CC)CC` (stereo not shown) [Compound 20, 2-((((3-(diethylamino)propoxy)carbonyl)oxy)methyl)-9-(nonan-5-yloxy)-9-oxononyl (9Z,12Z)-octadeca-9,12-dienoate], the pKa in data set [1] came to 6.19. Moreover, the “% E (encapsulation efficiency)” value in data set [2] came to 98%. In addition, in data set [3], the Number mean amounted to 68 nm, the PDI was found to be 0.05 and the Z-avg worked out at 84 nm.
As for `CCCCCCCCOC(CCC(=O)OCC(COC(=O)CCC(OCCCCCCCC)OCCCCCCCC)COC(=O)NCCN(CC)CC)OCCCCCCCC` [Compound 22, 2-((((2-(diethylamino)ethyl)carbamoyl)oxy)methyl)propane-1,3-diyl bis(4,4-bis(octyloxy)butanoate)], the pKa in data set [1] is 6.66. Also, in data set [2], the “% E (encapsulation efficiency)” value was found to be 99%. Also, in data set [3], the Number mean was 77 nm, the PDI is 0 and the Z-avg worked out at 82 nm.
